Assay: xn = mol fraction of the nth substance listed
Details: Liquid, Vibrating tube method

Cc1ccccc1 [toluene] + CCCO
mass density [kg/m3]
Details	x2 = 0	x2 = 0.125	x2 = 0.25	x2 = 0.375	x2 = 0.5	x2 = 0.625	x2 = 0.75	x2 = 0.875
323.15 K, 35000 kPa	866	859.3	853.3	847.1	840.6	833.4	825.6	816.4
323.15 K, 40000 kPa	869.4	862.8	856.5	850.3	843.9	836.7	829	819.8
323.15 K, 45000 kPa	872.5	865.9	859.8	853.6	847.1	840	832.2	822.9
323.15 K, 50000 kPa	875.7	869.2	863	856.8	850.3	843.1	835.3	826
323.15 K, 55000 kPa	878.7	872.2	866	859.8	853.3	846.1	838.3	829
323.15 K, 60000 kPa	881.7	875.1	869	862.7	856.2	848.9	841.1	831.9
323.15 K, 65000 kPa	884.6	878.1	871.9	865.6	859.1	851.8	844	834.6
333.15 K, 100 kPa	828.8	822	815.6	809.5	803.2	796.3	788.7	779.8
333.15 K, 5000 kPa	833.5	826.8	820.5	814.3	808	801.1	793.4	784.4
333.15 K, 10000 kPa	838.2	831.4	825	818.9	812.6	805.8	798.1	789.1
333.15 K, 15000 kPa	842.6	835.7	829.4	823.3	817	810.1	802.4	793.4
333.15 K, 20000 kPa	846.6	839.8	833.6	827.4	821.1	814.2	806.6	797.5
333.15 K, 25000 kPa	850.5	843.8	837.6	831.4	825	818.2	810.5	801.4
333.15 K, 30000 kPa	854.3	847.6	841.4	835.2	828.8	821.9	814.1	805
333.15 K, 35000 kPa	857.9	851.3	845	838.9	832.5	825.6	817.8	808.6
333.15 K, 40000 kPa	861.4	854.8	848.6	842.4	836	829.1	821.2	812
333.15 K, 45000 kPa	864.8	858.2	852	845.8	839.4	832.4	824.6	815.4
333.15 K, 50000 kPa	868.1	861.5	855.2	849	842.7	835.6	827.8	818.6
333.15 K, 55000 kPa	871.4	864.6	858.4	852.2	845.8	838.8	831	821.9
333.15 K, 60000 kPa	874.5	867.8	861.4	855.3	848.9	841.8	834	824.8
333.15 K, 65000 kPa	877.5	870.7	864.5	858.3	851.9	844.8	836.9	827.7
343.15 K, 100 kPa	819.4	812.2	805.5	799.4	793.3	786.5	779.1	770.7
343.15 K, 5000 kPa	824.5	817.3	810.8	804.6	798.4	791.7	784.2	775.8
343.15 K, 10000 kPa	829.3	822.3	815.8	809.6	803.4	796.6	789.1	780.6
343.15 K, 15000 kPa	833.9	826.9	820.4	814.3	808.1	801.3	793.8	785.1
343.15 K, 20000 kPa	838.1	831.3	824.9	818.7	812.4	805.7	798.1	789.5
343.15 K, 25000 kPa	842.3	835.5	829.1	822.9	816.6	809.8	802.2	793.5
343.15 K, 30000 kPa	846.2	839.5	833.1	827	820.7	813.9	806.2	797.4
343.15 K, 35000 kPa	850.1	843.2	837	830.7	824.5	817.6	809.9	801.1
343.15 K, 40000 kPa	853.7	847	840.6	834.4	828.2	821.4	813.5	804.6
343.15 K, 45000 kPa	857.4	850.4	844.3	838	831.8	824.9	817.2	808.2
343.15 K, 50000 kPa	860.8	853.9	847.7	841.4	835.2	828.2	820.5	811.4
343.15 K, 55000 kPa	864.2	857.1	851	844.8	838.5	831.5	823.7	814.7
343.15 K, 60000 kPa	867.4	860.5	854.3	848	841.8	834.8	826.9	817.7
343.15 K, 65000 kPa	870.3	863.6	857.4	851.1	844.9	837.8	829.9	820.7
353.15 K, 100 kPa	809.7	802.7	795.9	789.9	783.8	777	769	760.6
353.15 K, 5000 kPa	815.1	808	801.4	795.3	789.2	782.3	774.4	766.1
353.15 K, 10000 kPa	820.3	813.3	806.7	800.6	794.6	787.7	779.6	771.2
353.15 K, 15000 kPa	825.3	818.2	811.6	805.5	799.5	792.6	784.6	776.2
353.15 K, 20000 kPa	829.9	822.9	816.3	810.2	804.2	797.3	789.1	780.7
353.15 K, 25000 kPa	834	827.3	820.8	814.7	808.7	801.7	793.5	784.9
353.15 K, 30000 kPa	838.2	831.6	825	818.9	813	805.9	797.6	789
353.15 K, 35000 kPa	842.2	835.6	829.1	822.9	817	809.9	801.6	792.9
353.15 K, 40000 kPa	846.1	839.4	833	826.8	820.8	813.7	805.4	796.6
353.15 K, 45000 kPa	849.8	843.2	836.7	830.6	824.6	817.4	809.1	800.3
353.15 K, 50000 kPa	853.3	846.8	840.3	834.2	828.1	820.9	812.5	803.7
353.15 K, 55000 kPa	856.7	850.2	843.8	837.6	831.6	824.4	815.8	807
353.15 K, 60000 kPa	860.1	853.6	847.2	840.9	835	827.7	818.9	810.3
353.15 K, 65000 kPa	863.5	856.8	850.4	844.2	838.3	830.9	822.5	813.6
